Experiments:
recombinant human Gal-3 = target: T1, recombinant human Gal-3 (Homo sapiens, UniProt P17931); experiment: 1H-15N HSQC NMR shifts of 15N-labeled Gal-3 on compound addition; format: binding; conditions: full Gal-3
T1 construct: shifts of whole molecule of Gal-3 (Gal-3 FL); made in house; host or cells: E. coli BL21 (DE3)
Experimental: Heteronuclear ^15N NMR spectroscopy was used to evaluate the interaction of compounds described herein with galectin molecules, including but not limited to Gal-3, to assess the interaction residues on the Gal-3 molecule.
NMR experiments were carried out at 30° C. on Bruker 600 MHz, 700 MHz or 850 MHz spectrometers equipped with H/C/N triple-resonance probes and x/y/z triple-axis pulse field gradient units. […] Raw data were converted and processed by using NMRPipe and were analyzed by using NMRview.

Gal-3 CRD = Gal-3 CRD (Homo sapiens, UniProt P17931); experiment: Fluorescence Polarization with fluorescein-labeled carbohydrate probe; format: binding; conditions: FITC linked lactose derivative probe
Sequence of Gal-3 CRD (P17931 whole entry): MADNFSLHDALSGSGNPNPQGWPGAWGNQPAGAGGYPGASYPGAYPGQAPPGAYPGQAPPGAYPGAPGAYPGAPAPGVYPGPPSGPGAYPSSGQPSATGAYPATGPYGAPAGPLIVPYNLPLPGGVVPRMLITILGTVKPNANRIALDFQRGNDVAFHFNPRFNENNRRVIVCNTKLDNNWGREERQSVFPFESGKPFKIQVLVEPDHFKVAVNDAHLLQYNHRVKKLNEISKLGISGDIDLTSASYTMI

[1] = target: Gal-3 binding to Integrin αMβ2 (Homo sapiens, UniProt P17931); experiment: ELISA Gal-3 binding to integrin αMβ2
Sequence of Gal-3 binding to Integrin αMβ2 (P17931 2-250 limits assumed): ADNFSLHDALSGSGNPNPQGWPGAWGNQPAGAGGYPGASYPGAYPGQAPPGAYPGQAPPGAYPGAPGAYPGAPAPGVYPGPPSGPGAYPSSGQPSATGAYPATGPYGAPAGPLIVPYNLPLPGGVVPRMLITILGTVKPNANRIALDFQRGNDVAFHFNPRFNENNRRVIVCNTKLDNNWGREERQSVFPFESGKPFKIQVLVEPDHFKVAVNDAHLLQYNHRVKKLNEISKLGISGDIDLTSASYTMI
Excerpt: Illustrations of functional assays with Gal-3 binding pairing specific antibody with a Glycoprotein ligand, e.g. Gal-3 Binding-Protein (Gal-3 BP), Integrins, etc. (FIGS. 7A and 7B).
(§1) Activated ELISA plate is coated with αMβ2 integrin.

[2] = target: galectin 1 interaction with integrin αMβ2 (Homo sapiens, UniProt P09382); experiment: ELISA galectin 1 interaction with integrin αMβ2; format: binding; conditions: FIG. 8E
Sequence of galectin 1 interaction with integrin αMβ2 (P09382 2-135 limits assumed): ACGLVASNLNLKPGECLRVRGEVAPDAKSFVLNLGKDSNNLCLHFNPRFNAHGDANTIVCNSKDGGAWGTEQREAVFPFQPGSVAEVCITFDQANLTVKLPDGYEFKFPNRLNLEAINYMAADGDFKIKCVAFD

[3] = target: galectin 9 interaction with integrin αMβ2 (Homo sapiens, UniProt O00182); experiment: ELISA galectin 9 interaction with integrin αMβ2; format: binding; conditions: FIG. 8E
Sequence of galectin 9 interaction with integrin αMβ2 (O00182 whole entry): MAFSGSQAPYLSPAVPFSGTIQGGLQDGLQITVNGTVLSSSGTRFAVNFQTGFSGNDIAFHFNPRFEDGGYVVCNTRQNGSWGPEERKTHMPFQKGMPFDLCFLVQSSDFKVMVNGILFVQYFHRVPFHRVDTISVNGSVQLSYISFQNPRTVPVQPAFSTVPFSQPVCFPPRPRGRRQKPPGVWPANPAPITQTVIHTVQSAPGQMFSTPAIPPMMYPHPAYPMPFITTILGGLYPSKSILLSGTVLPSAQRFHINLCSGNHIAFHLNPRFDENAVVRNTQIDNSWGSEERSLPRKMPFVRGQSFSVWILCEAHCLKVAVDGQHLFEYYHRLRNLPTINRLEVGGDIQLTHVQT
Excerpt: as §1

[4] = target: Gal-3 binding to IGF-R1 (gene IGF1R) (Homo sapiens, UniProt P17931); experiment: ELISA Gal-3 binding to Insulin Like Growth Factor 1 Receptor; conditions: FIGS. 12G-1 to 12G-3
Sequence of Gal-3 binding to IGF-R1 (gene IGF1R) (P17931 2-250 limits assumed): as the sequence (P17931 2-250 limits assumed) above
Experimental: Using the ELISA composition assay described herein, in which the compounds were incubated with Gal-3 and the binding of Gal-3 with IGF-Receptor was tested.

T1 sequence (P17931 whole entry): as the sequence (P17931 whole entry) above

Compound	interaction with amino-acids located in the CRD site (HSQC NMR) (recombinant human Gal-3)	Fluorescent Polarization inhibition signal (Gal-3 CRD)	specificity for Gal-3 vs other galectins (1, 8, 9) ([1]; ELISA with integrin αMβ2, FIGS. 8D and 8E)	inhibition of Integrin αMβ2 interaction with Gal-3 ([1]; ELISA, FIGS. 8B, 8C, 12C)	inhibition of galectin 1 interaction with integrin αMβ2 [2]	inhibition of galectin 9 interaction with integrin αMβ2 [3]	effect on Gal-3 binding to IGF-R1 [4]
Cc1ccc(COc2ccc(C=C3CCn4c3nc(=O)c3ccccc34)cc2)cc1 [AGS-0144, 3-({4-[(4-methylphenyl)methoxy]phenyl}methylidene)-1H,2H,3H,5H-pyrrolo[1,2-a]quinazolin-5-one]	have not directly interact with these amino-acids	–	–	–	–	–	–
OC[C@H]1O[C@@H](S[C@@H]2O[C@H](CO)[C@H](O)[C@H](n3cc(-c4cccc(F)c4)nn3)[C@H]2O)[C@H](O)[C@@H](n2cc(-c3cccc(F)c3)nn2)[C@H]1O [TD-139]	create disturbances of amino-acid located in the CRD site	strong signal	non-specific interaction	inhibition	inhibited	inhibited	cause inhibition

Reference: patent US12377102B2, “Compounds for the prevention and treatment of medical disorders and uses thereof” (GALECTIN SCIENCES, LLC, priority 2017, dated 2025)
